# Results reported in article PMC10989073, “Antineoplastic effect of compounds C14 and P8 on TNBC and radioresistant TNBC cells by stabilizing the K-Ras4B^G13D/PDE6δ complex” (Frontiers in Oncology, 2024).
# Legend:
# Assay type in all cases: cell-based, human
# [1] = tested on: cyclin D1 and GSK3β in MDA-MB-231 cells; assay: Western blotting of cyclin D1 and GSK3β; settings: MDA-MB-231, 3 h; C14 and P8 at IC50-24 (Figure 7 legend), cisplatin 100 µM, doxorubicin 0.5 µM
# Description: (§1) To determine the effect of the C14 and P8 compounds over the protein effectors of K-Ras4B, AKT, and ERK, immunoblotting assays were conducted with specific antibodies. In brief, MCF-10A, MDA-MB-231, and MDA-MB-231RR cells were plated in 100-mm culture dishes until 80% of confluents. Cell adhesion was allowed for 24 h. […] After pre-treatment, cells were stimulated with 100 ng/ml EGF for 10 minutes to promote AKT and ERK activation. Later, the whole-cell extracts were obtained by the lysis of the cells (Cytoskeleton) in the presence of proteases and phosphatase inhibitors. Subsequently, the protein extracts were incubated at 4°C for 40 minutes to be clarified by centrifugation for 10 minutes at 14,000 rpm, at 4°C. The protein concentration of each extract was determined by using the Precision Red Advanced Protein Assay Reagent (Cytoskeleton) Then, approximately 25 μg of protein extract was electrophoresed in 10% sodium dodecyl sulfate–polyacrylamide gel electrophoresis (SDS-PAGE) and transferred to polyvinylidene fluoride (PVDF) membranes (Millipore, Billerica, MA, USA). Blots were probed using the following primary antibodies: Total ERK (Cell Signaling, Danvers, MA, USA), pERK (Cell Signaling), Total AKT (Cell Signaling), pAKT (Cell Signaling), GSK3β (Cell Signaling), and cyclin D1 (Abcam) at a 1:1,000 dilution. As a control, an anti-GAPDH antibody (GeneTex, Irvine, CA, USA) was employed at a 1:100,000 dilution and γ-Tubulin (Invitrogen) 1:5,000. Densitometric analysis of blots was performed using the software ImageJ version 1.45 (National Institutes of Health, Bethesda, […], USA).
# [2] = tested on: cyclin D1 and GSK3β in MDA-MB-231RR cells; assay: Western blotting of cyclin D1 and GSK3β; settings: 3 h, C14 and P8 at IC50-24 (Figure 7 legend), cisplatin 100 µM, doxorubicin 0.5 µM
# Description: as §1
# MDA-MB-231 cells [3] = assay: Apoptosis/necrosis assay (Annexin V–propidium iodide, flow cytometry); settings: MDA-MB-231, 24 h; C14 and P8 at IC50-24, cisplatin 100 µM, doxorubicin 0.5 µM
# Description: (§2) To determine if the C14 and P8 compounds were able to evoke cell death by apoptosis or necrosis, cell lines MCF-10A, MDA-MB-231, and MDA-MB-231RR were treated at IC50-24 for 24 h. Apoptosis and necrosis were determined using the Apoptosis/Necrosis Detection kit (Abcam, Cambridge, UK) according to the manufacturer’s instructions. In brief, approximately 500,000 cells were seeded in 6-well plates (Corning) for 24 h. Then, each cell line was treated with the respective IC50-24 concentrations of C14 and P8. […] Cells were harvested and collected by centrifugation. All the samples were analyzed in triplicate using flow cytometry equipment FACSCalibur instrument (BD Biosciences, San Jose, CA, USA) at […] and 575-nm emission. Data analysis was performed using the FlowJo software (Tree Star Inc., Ashland, OR, USA). All experiments were performed in triplicate.
# MDA-MB-231RR cells [4] = assay: as above; settings: 24 h, C14 and P8 at IC50-24, cisplatin 100 µM, doxorubicin 0.5 µM
# Description: as §2
# MDA-MB-231 cells [5] = assay: Clonogenic assay; settings: MDA-MB-231, 10 to 12 days; C14 and P8 at IC50-48, cisplatin 100 µM, doxorubicin 0.5 µM
# Description: (§3) The principal aim of a clonogenic assay is to evaluate the effect of chemotherapy agents or new drugs by the measurement of their ability to arrest tumor cell division and their ability to develop new colonies after their exposure to these new drugs ([56]). Therefore, the colony formation ability of the cell lines MCF-10A, MDA-MB-231, and MDA-MB-231RR was evaluated after their exposure to the C14 and P8 compounds. In brief, breast cancer cell lines were cultured in 6-well plates (Corning), seeding 300 cells per well, and incubated at 37°C in 5% CO2 for 24 h. Compounds C14 and P8 were added at the maximum evaluated concentration IC50-48. As controls, cells without treatment and cells treated in the presence of a vehicle (DMSO at 0.66%) were employed (Sigma-Aldrich). […] After 10 days of treatment, cells were fixed with 4% PFA and stained with 0.1% crystal violet in citric acid (Sigma-Aldrich) for 15 minutes. Subsequently, the dye present in the cells was extracted using isopropanol and read at 570 nm in a Synergy-HTX microplate reader (BioTek). Each test was performed in triplicate. Data were expressed as % colonies relative to the untreated control ([56]).
# MCF-10A cells [6] = assay: Clonogenic assay; settings: 10 to 12 days, C14 and P8 at IC50-48, cisplatin 100 µM, doxorubicin 0.5 µM
# Description: as §3
# MDA-MB-231RR cells [7] = assay: Clonogenic assay; settings: 10 to 12 days, C14 and P8 at IC50-48, cisplatin 100 µM, doxorubicin 0.5 µM
# Description: as §3
# Ras-GTP in MCF-10A cells = assay: Ras activation pull-down assay (Raf-RBD); settings: 3 h pre-treatment (C14, P8 at IC50-48H), EGF 100 ng/ml 10 min
# Description: Subsequently, the cells were stimulated with epidermal growth factor (EGF) (100 ng/ml) for 10 minutes. Lysates (1 mg/ml) were exposed to Ras GTP-binding protein (Raf-RBD), following the manufacturer’s instructions. Experiments for each cell type and condition were repeated three times.
# MCF-10A cells [8] = assay: Apoptosis/necrosis assay (Annexin V–propidium iodide, flow cytometry); settings: 24 h, cisplatin 100 µM, doxorubicin 0.5 µM
# Description: as §2, with “Apoptosis” for “To determine if the C14 and P8 compounds were able to evoke cell death by apoptosis or necrosis, cell lines MCF-10A, MDA-MB-231, and MDA-MB-231RR were treated at IC50-24 for 24 h. Apoptosis”, “h.” for “h. Then, each cell line was treated with the respective IC50-24 concentrations of C14 and P8.”
# MDA-MB-231 cells [9] = assay: Cell cycle analysis (propidium iodide, flow cytometry); settings: MDA-MB-231, 3 h at IC50-48H; control 10.0%
# Description: After 3-h incubation, cells were harvested, washed twice in ice-cold PBS, and fixed overnight in 70% ethanol at 4°C. Then, cells were washed in PBS, collected by centrifugation, and stained with staining buffer (PBS with 50 µg/ml propidium iodide and 100 µg/ml RNase A).
structure (smiles),measurement,setting,value
"COc1cccc2c1C(=O)c1c(O)c3c(c(O)c1C2=O)C[C@@](O)(C(=O)CO)C[C@@H]3O[C@H]1C[C@H](N)[C@H](O)[C@H](C)O1 [Doxorubicin, doxorubicin, reference compound]",reduction in cyclin D1 expression,[1],no significant effect
same,reduction in cyclin D1,[2],20%
same,apoptosis cells,MDA-MB-231 cells [3],4.65%
same,necrosis,MDA-MB-231 cells [3],9.20%
same,apoptosis cells,MDA-MB-231RR cells [4],0.61%
same,necrosis,MDA-MB-231RR cells [4],1.28%
same,reduction in colony formation,MDA-MB-231 cells [5],significant reduction
same,reduction of colony growth,MCF-10A cells [6],up to 90%
same,reduction in colony formation,MDA-MB-231RR cells [7],90%
same,reduction in Ras-GTP,Ras-GTP in MCF-10A cells,40%
same,apoptosis cells,MCF-10A cells [8],up to 11.54%
same,percentage of cells in G2/M,MDA-MB-231 cells [9],increased
